Results from the OligoGym collection.
HELM strings list units from the 5' end as sugar, base in round brackets, then linkage (d deoxyribose, r ribose, m 2'-O-methyl, p phosphodiester). Strings are as the collection lists them; they lack the last nucleoside at the 3' end of the tested compound. [moe] = 2'-O-(2-methoxyethyl) (MOE); [sp] = phosphorothioate linkage; [m5C] = 5-methylcytosine

Molecular target: UBE3A-ATS
Assay: mouse, dose not given
Details: ASO

Substance | 3 h FOB score [score 0-7]
RNA1{[moe](G)[sp].[moe]([m5C])p.[moe](A)p.[moe](T)p.d(A)[sp].d([m5C])[sp].d([m5C])[sp].d([m5C])[sp].d(A)[sp].d(G)[sp].d(G)[sp].d(G)[sp].d(T)[sp].d(A)[sp].[moe](G)p.[moe](G)p.[moe](A)p.[moe](T)[sp].[moe](T)}$$$$ (last 3' nucleoside missing) | 1
RNA1{[moe](G)[sp].[moe]([m5C])p.[moe](A)p.[moe]([m5C])p.[moe](A)p.d(T)[sp].d(A)[sp].d(G)[sp].d(A)[sp].d([m5C])[sp].d([m5C])[sp].d(A)[sp].d(T)[sp].d(A)[sp].d(G)[sp].[moe]([m5C])p.[moe](T)p.[moe](G)[sp].[moe](A)}$$$$ (last 3' nucleoside missing) | 3.3
RNA1{[moe](G)[sp].[moe]([m5C])p.[moe](A)p.[moe]([m5C])p.[moe](A)p.d([m5C])[sp].d([m5C])[sp].d(T)[sp].d(G)[sp].d(G)[sp].d(A)[sp].d(T)[sp].d(T)[sp].d(T)[sp].d([m5C])[sp].[moe](A)p.[moe]([m5C])p.[moe](T)[sp].[moe](A)}$$$$ (last 3' nucleoside missing) | 2
RNA1{[moe](G)[sp].[moe]([m5C])p.[moe](A)p.[moe]([m5C])p.[moe](T)p.d(T)[sp].d(A)[sp].d(A)[sp].d(A)[sp].d(T)[sp].d(T)[sp].d(T)[sp].d(A)[sp].d(T)[sp].d([m5C])[sp].[moe](A)p.[moe](G)p.[moe](T)[sp].[moe](T)}$$$$ (last 3' nucleoside missing) | 3
RNA1{[moe](G)[sp].[moe]([m5C])p.[moe](T)p.[moe](A)p.[moe](T)p.d(A)[sp].d(G)[sp].d(G)[sp].d(T)[sp].d(G)[sp].d(T)[sp].d([m5C])[sp].d(A)[sp].d([m5C])[sp].d(A)[sp].[moe](T)p.[moe](A)p.[moe](T)[sp].[moe](T)}$$$$ (last 3' nucleoside missing) | 2
RNA1{[moe](G)[sp].[moe]([m5C])p.[moe](T)p.[moe](A)p.[moe](T)p.d(A)[sp].d([m5C])[sp].d([m5C])[sp].d([m5C])[sp].d([m5C])[sp].d(T)[sp].d(A)[sp].d(G)[sp].d(G)[sp].d(A)[sp].[moe](T)p.[moe]([m5C])p.[moe](A)[sp].[moe](G)}$$$$ (last 3' nucleoside missing) | 3.8
RNA1{[moe](G)[sp].[moe]([m5C])p.[moe](T)p.[moe](A)p.[moe](T)p.d([m5C])[sp].d(T)[sp].d(G)[sp].d(T)[sp].d(A)[sp].d([m5C])[sp].d(A)[sp].d(A)[sp].d(A)[sp].d(A)[sp].[moe](T)p.[moe](G)p.[moe](G)[sp].[moe](A)}$$$$ (last 3' nucleoside missing) | 0
RNA1{[moe](G)[sp].[moe]([m5C])p.[moe](T)p.[moe](G)[sp].d(A)[sp].d(T)[sp].d([m5C])[sp].d(A)[sp].d([m5C])[sp].d(A)[sp].d(T)[sp].d(T)[sp].[moe](A)p.[moe]([m5C])p.[moe]([m5C])p.[moe]([m5C])[sp].[moe](A)}$$$$ (last 3' nucleoside missing) | 0
RNA1{[moe](G)[sp].[moe]([m5C])p.[moe](T)p.[moe](G)p.[moe](A)[sp].d(T)[sp].d([m5C])[sp].d(A)[sp].d([m5C])[sp].d(A)[sp].d(T)[sp].d(T)[sp].d(A)[sp].[moe]([m5C])p.[moe]([m5C])p.[moe]([m5C])[sp].[moe](A)}$$$$ (last 3' nucleoside missing) | 1
RNA1{[moe](G)[sp].[moe]([m5C])p.[moe](T)p.[moe](G)p.[moe](A)p.[moe](T)[sp].d([m5C])[sp].d(A)[sp].d([m5C])[sp].d(A)[sp].d(T)[sp].d(T)[sp].d(A)[sp].d([m5C])[sp].[moe]([m5C])p.[moe]([m5C])[sp].[moe](A)}$$$$ (last 3' nucleoside missing) | 0
RNA1{[moe](G)[sp].[moe]([m5C])p.[moe](T)p.[moe](G)p.[moe](A)p.[moe](T)p.d([m5C])[sp].d(A)[sp].d([m5C])[sp].d(A)[sp].d(T)[sp].d(T)[sp].d(A)[sp].d([m5C])[sp].d([m5C])[sp].d([m5C])[sp].[moe](A)p.[moe](T)[sp].[moe]([m5C])}$$$$ (last 3' nucleoside missing) | 0
RNA1{[moe](G)[sp].[moe]([m5C])p.[moe](T)p.[moe](G)p.[moe](A)p.d(T)[sp].d([m5C])[sp].d(A)[sp].d([m5C])[sp].d(A)[sp].d(T)[sp].d(T)[sp].d(A)[sp].d([m5C])[sp].d([m5C])[sp].[moe]([m5C])p.[moe](A)p.[moe](T)[sp].[moe]([m5C])}$$$$ (last 3' nucleoside missing) | 0
RNA1{[moe](G)[sp].[moe]([m5C])p.[moe](T)p.[moe](G)p.[moe](T)p.d(A)[sp].d(A)[sp].d(G)[sp].d(T)[sp].d(A)[sp].d(T)[sp].d(A)[sp].d(G)[sp].d(A)[sp].d(T)[sp].[moe](G)p.[moe]([m5C])p.[moe]([m5C])[sp].[moe](T)}$$$$ (last 3' nucleoside missing) | 2
RNA1{[moe](G)[sp].[moe]([m5C])p.[moe](T)p.[moe](G)p.d(A)[sp].d(T)[sp].d([m5C])[sp].d(A)[sp].d([m5C])[sp].d(A)[sp].d(T)[sp].d(T)[sp].d(A)[sp].d([m5C])[sp].[moe]([m5C])p.[moe]([m5C])p.[moe](A)p.[moe](T)[sp].[moe]([m5C])}$$$$ (last 3' nucleoside missing) | 0
RNA1{[moe](G)[sp].[moe]([m5C])p.[moe](T)p.[moe](T)p.[moe](A)p.d(G)[sp].d(G)[sp].d([m5C])[sp].d(A)[sp].d(A)[sp].d(T)[sp].d(G)[sp].d(G)[sp].d(A)[sp].d([m5C])[sp].[moe](T)p.[moe](T)p.[moe](A)[sp].[moe](G)}$$$$ (last 3' nucleoside missing) | 5.5
RNA1{[moe](G)[sp].[moe]([m5C])p.[moe](T)p.[moe](T)p.[moe](A)p.d(T)[sp].d(G)[sp].d(T)[sp].d(A)[sp].d(G)[sp].d([m5C])[sp].d(T)[sp].d([m5C])[sp].d(A)[sp].d(G)[sp].[moe]([m5C])p.[moe](T)p.[moe]([m5C])[sp].[moe](A)}$$$$ (last 3' nucleoside missing) | 1
RNA1{[moe](G)[sp].[moe]([m5C])p.[moe](T)p.[moe](T)p.[moe](T)p.d(A)[sp].d(G)[sp].d(T)[sp].d(A)[sp].d(T)[sp].d(G)[sp].d(T)[sp].d([m5C])[sp].d(G)[sp].d(A)[sp].[moe](G)p.[moe](A)p.[moe](A)[sp].[moe]([m5C])}$$$$ (last 3' nucleoside missing) | 6
RNA1{[moe](G)[sp].[moe]([m5C])p.[moe](T)p.[moe](T)p.[moe](T)p.d(A)[sp].d(T)[sp].d(A)[sp].d([m5C])[sp].d(T)[sp].d(T)[sp].d(T)[sp].d(A)[sp].d([m5C])[sp].d([m5C])[sp].[moe]([m5C])p.[moe](A)p.[moe](A)[sp].[moe]([m5C])}$$$$ (last 3' nucleoside missing) | 1
RNA1{[moe](G)[sp].[moe]([m5C])p.[moe](T)p.[moe](T)p.[moe](T)p.d(T)[sp].d([m5C])[sp].d(A)[sp].d(G)[sp].d(T)[sp].d([m5C])[sp].d(A)[sp].d(G)[sp].d(G)[sp].d(T)[sp].[moe](A)p.[moe]([m5C])p.[moe](A)[sp].[moe](G)}$$$$ (last 3' nucleoside missing) | 6
RNA1{[moe](G)[sp].[moe]([m5C])p.[moe](T)p.[moe](T)p.[moe]([m5C])p.[moe](A)p.d([m5C])[sp].d([m5C])[sp].d(A)[sp].d(T)[sp].d(T)[sp].d(T)[sp].d(T)[sp].d(G)[sp].d(A)[sp].d([m5C])[sp].[moe]([m5C])p.[moe](T)[sp].[moe](T)}$$$$ (last 3' nucleoside missing) | 1
RNA1{[moe](G)[sp].[moe]([m5C])p.[moe](T)p.[moe](T)p.[moe]([m5C])p.d(A)[sp].d([m5C])[sp].d([m5C])[sp].d(A)[sp].d(T)[sp].d(T)[sp].d(T)[sp].d(T)[sp].d(G)[sp].d(A)[sp].[moe]([m5C])p.[moe]([m5C])p.[moe](T)[sp].[moe](T)}$$$$ (last 3' nucleoside missing) | 2.2
RNA1{[moe](G)[sp].[moe]([m5C])p.[moe](T)p.[moe](T)p.d([m5C])[sp].d(A)[sp].d([m5C])[sp].d([m5C])[sp].d(A)[sp].d(T)[sp].d(T)[sp].d(T)[sp].d(T)[sp].d(G)[sp].[moe](A)p.[moe]([m5C])p.[moe]([m5C])p.[moe](T)[sp].[moe](T)}$$$$ (last 3' nucleoside missing) | 0
RNA1{[moe](G)[sp].[moe]([m5C])p.[moe](T)p.[moe]([m5C])[sp].d(A)[sp].d(G)[sp].d(T)[sp].d(T)[sp].d(A)[sp].d(G)[sp].d(G)[sp].d(T)[sp].[moe](T)p.[moe](A)p.[moe](G)p.[moe](T)[sp].[moe](G)}$$$$ (last 3' nucleoside missing) | 4
RNA1{[moe](G)[sp].[moe]([m5C])p.[moe](T)p.[moe]([m5C])p.[moe](A)[sp].d(G)[sp].d(T)[sp].d(T)[sp].d(A)[sp].d(G)[sp].d(G)[sp].d(T)[sp].d(T)[sp].[moe](A)p.[moe](G)p.[moe](T)[sp].[moe](G)}$$$$ (last 3' nucleoside missing) | 2.3
RNA1{[moe](G)[sp].[moe]([m5C])p.[moe](T)p.[moe]([m5C])p.[moe](A)p.[moe](G)[sp].d(T)[sp].d(T)[sp].d(A)[sp].d(G)[sp].d(G)[sp].d(T)[sp].d(T)[sp].d(A)[sp].[moe](G)p.[moe](T)[sp].[moe](G)}$$$$ (last 3' nucleoside missing) | 5
RNA1{[moe](G)[sp].[moe]([m5C])p.[moe](T)p.[moe]([m5C])p.[moe](A)p.[moe](G)p.d(T)[sp].d(T)[sp].d(A)[sp].d(G)[sp].d(G)[sp].d(T)[sp].d(T)[sp].d(A)[sp].d(G)[sp].d(T)[sp].[moe](G)p.[moe]([m5C])[sp].[moe](A)}$$$$ (last 3' nucleoside missing) | 4
